In one experiment the test system is guinea pig TGR5. Briefly: cAMP production increasing activity in guinea pig TGR5 expressing CHO cells. To be noted: test compound 2 μM; 10 μM lithocholic acid = 100%; average of 3 groups. The class given is cell-based. How it is done:
(§1) The guinea pig type TGR5 expressing CHO cells were seeded in one 150 cm^2 flask at 1×10^7 cells, and cultured overnight at 37° C., 5% CO2. After culture, the cells were detached with 0.5 mM EDTA/PBS, washed with PBS, and suspended in Buffer 1 (HBSS+0.1% BSA, 25 mM HEPES pH 7.3, 0.5 mM IBMX) at a density of 1×10^7 cells/ml. The obtained cell suspension (460 μl), anti-cAMP acceptor beads (23 μl) of AlphaScreen cAMP assay kit (Perkin Elmer) and Buffer 1 (667 μl) were mixed and dispensed to a white 96 well plate (Costar) by 10 μl. Then, a test compound diluted with Buffer 1 was added to each well by 10 μl. At this time, one row of the plate was free of the cell suspension but added with anti-cAMP acceptor beads (9 μl) and Buffer 1 (441 μl) alone, and serial dilutions of cAMP were added instead of the test compound and used as the standard. A mixture of the cell suspension and the test compound contained in the plate was allowed to react at room temperature for 30 min. […] The plate was shaken at room temperature for 2.5 hrs and fluorescence intensity was measured by Fusion α (Parkin Elmer), and the cAMP concentration of each well was calculated using the cAMP standard on each plate.

In a further experiment the target is T1, rat TGR5 (Rattus norvegicus, UniProt Q80T02).
T1 construct: expressed in transfected cells; host or cells: CHO cells
T1 sequence (Q80T02 1-329): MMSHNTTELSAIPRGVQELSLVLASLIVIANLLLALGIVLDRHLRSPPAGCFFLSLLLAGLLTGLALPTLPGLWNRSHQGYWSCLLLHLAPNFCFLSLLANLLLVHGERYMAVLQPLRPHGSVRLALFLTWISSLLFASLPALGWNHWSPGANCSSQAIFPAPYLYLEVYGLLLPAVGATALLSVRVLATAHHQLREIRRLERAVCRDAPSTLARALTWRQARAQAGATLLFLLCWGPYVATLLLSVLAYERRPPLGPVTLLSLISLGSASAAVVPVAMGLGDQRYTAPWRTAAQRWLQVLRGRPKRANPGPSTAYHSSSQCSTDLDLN
Briefly: cAMP production increasing activity in rat type TGR5 expressing CHO cells. The conditions noted are these: 0.5 h, read-out: cAMP producing activity (control %). The format is cell-based. How it is done:
as §1, with “After” for “The guinea pig type TGR5 expressing CHO cells were seeded in one 150 cm^2 flask at 1×10^7 cells, and cultured overnight at 37° C., 5% CO2. After”

Experiment [1] concerns rat intestine primary culture cells. Briefly: GLP-1 secretion from rat intestine primary culture cells. To be noted: test compound 20 μM, 150 min. The class given is cell-based. The procedure: Terminal ileum and colon mucous membrane were removed from rat (Wistar, male, Charles River Japan, Inc.) and subjected to an enzyme treatment to give a cell dispersion according to the following method.
The enzyme solution used was obtained by dissolving 5 mg/ml Collagenase (Sigma), 5 mg/ml Hyaluronidase (Sigma) and 0.5 mg/ml DNaseI (Sigma) in a medium. The medium used was Dulbecco's Modified Eagle Medium (DMEM, Invitrogen) supplemented with 4.5 g/l Glucose, 5% FBS (Invitrogen), 100 units/ml Penicillin (Invitrogen), 100 μg/ml Streptomycin (Invitrogen), 50 μg/ml Gentamicin (Invitrogen) and 20 mM Hepes (pH 7.3). After digestion by the enzyme solution at 37° C., the tissue sections were prepared into dispersed cells by passing through a pipette 7 times and the cells were collected. The collected cells were washed with a buffer (incubation buffer) obtained by adding 5.5 mM Glucose and 0.1% BSA to a modified Krebs-Ringer bicarbonate buffer (KRBH, 116 mM NaCl, 4.7 mM KCl, 1.2 mM KH2PO4, 1.2 mM MgSO4, 2.5 mM CaCl2, 25 mM NaHCO3, 24 mM HEPES, pH 7.3), and preincubated at 37° C. under 5% CO2 for 30 min. 0.1 μM Phorbol ester (Wako), 1% DPPIV inhibitor (Linco) and a test compound were added to the above-mentioned incubation buffer, and the obtained buffer was added to the cells after the aforementioned preincubation and incubated for 150 min. The culture supernatant was collected and cryopreserved. The concentration of GLP-1 released in the culture supernatant was measured using an ELISA kit (Linco).

The target in experiment [2] is T2, human TGR5 (Homo sapiens, UniProt Q8TDU6).
T2 construct: expressed in transfected cells; host or cells: CHO cells
T2 sequence (Q8TDU6 1-330): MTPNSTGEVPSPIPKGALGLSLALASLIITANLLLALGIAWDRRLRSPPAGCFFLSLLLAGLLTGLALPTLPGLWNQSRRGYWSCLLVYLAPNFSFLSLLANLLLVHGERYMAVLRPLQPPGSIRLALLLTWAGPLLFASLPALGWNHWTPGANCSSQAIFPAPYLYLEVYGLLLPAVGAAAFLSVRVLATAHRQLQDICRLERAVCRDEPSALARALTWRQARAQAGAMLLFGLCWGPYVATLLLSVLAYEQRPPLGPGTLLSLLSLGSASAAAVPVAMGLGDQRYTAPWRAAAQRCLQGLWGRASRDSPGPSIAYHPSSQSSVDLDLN
The experiment is described as follows: cAMP production increasing activity in human TGR5 expressing CHO cells. The class given is cell-based. To be noted: read-out: EC50 value (concentration necessary to make the cAMP production amount 50%). Background: Changes in cAMP serve as a functional read-out for many G protein-coupled receptors.

Experiment [3] has as its target T2, human TGR5. Described as above. The format is cell-based. To be noted: test compound 1 μM, 30 min; 1 μM lithocholic acid = 100%, no addition = 0%; average of 3 groups.
Experiment [4] concerns mock CHO cells free of human TGR5 expression. The experiment is described as follows: cAMP production increasing activity in mock CHO cells free of human TGR5 expression. The class given is cell-based. The conditions noted are these: Experimental Example 5; test compounds 2 μM; Base 0.19; average of 3 groups. The procedure:
As the assay buffer, Hank's balanced salt solution (HBSS, Invitrogen) supplemented with 0.1% bovine serum albumin (BSA, Sigma) and 0.2 mM 3-isobutyl-1-methylxanthine (IBMX, Sigma) was used. The cells were washed twice with the assay buffer and preincubated at 37° C. for 30 min. The cells were washed twice, and test compound samples (10 μM) diluted with the assay buffer to various concentrations were added. The cells were incubated at 37° C. for 20 min. The culture supernatant was discarded, and the cAMP production amount was measured using a cAMP Screen System (ABI).

In a further experiment the target is T3, rabbit TGR5 (Oryctolagus cuniculus, UniProt Q862A8).
T3 construct: expressed in transfected cells; host or cells: CHO cells
T3 sequence (Q862A8 1-330): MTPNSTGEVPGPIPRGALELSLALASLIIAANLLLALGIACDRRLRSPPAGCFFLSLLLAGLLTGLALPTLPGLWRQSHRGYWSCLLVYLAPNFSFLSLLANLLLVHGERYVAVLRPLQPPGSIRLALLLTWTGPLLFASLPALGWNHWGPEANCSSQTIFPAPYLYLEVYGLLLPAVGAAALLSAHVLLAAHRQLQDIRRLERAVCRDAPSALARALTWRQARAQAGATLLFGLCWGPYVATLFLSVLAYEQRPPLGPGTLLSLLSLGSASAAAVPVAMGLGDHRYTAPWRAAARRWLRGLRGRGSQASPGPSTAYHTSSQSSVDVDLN
Briefly: cAMP production increasing activity in rabbit TGR5 expressing CHO cells. The class given is cell-based. The conditions noted are these: Experimental Example 6; 2 μM; 10 μM lithocholic acid = 100%; average of 3 groups. The procedure:
As the assay buffer, Hank's balanced salt solution (HBSS, Invitrogen) supplemented with 0.1% bovine serum albumin (BSA, Sigma) and 0.2 mM 3-isobutyl-1-methylxanthine (IBMX, Sigma) was used. The cells were washed twice with the assay buffer and preincubated at 37° C. for 30 min. The cells were washed twice and test compound samples (2 μM) diluted with the assay buffer were added. The cells were incubated at 37° C. for 20 min. The culture supernatant was discarded, and the cAMP production amount was measured using a cAMP Screen System (ABI).

The next experiment has as its system NCI-H716 cells. Briefly: intracellular cAMP production increasing action in NCI-H716 cells. The class given is cell-based, human. The conditions noted are these: 10 μM, 2 hrs; production amount in TLCA (50 μM) was 100%; Base 11. The procedure:
NCI-H716 (ATCC) was suspended in a medium (Dulbecco's Modified Eagle Medium (DMEM, Invitrogen) supplemented with 10% fetal bovine serum (Invitrogen), 100 U/ml penicillin and 100 μg/ml streptomycin), seeded in a 96 well plate, cultured for 2 days and used for cAMP production assay. As a cAMP assay buffer, modified Krebs-Ringer bicarbonate buffer (KRBH, 116 mM NaCl, 4.7 mM KCl, 1.2 mM KH2PO4, 1.2 MM MgSO4, 2.5 mM CaCl2, 25 mM NaHCO3, 24 mM HEPES pH 7.3), supplemented with glucose 5.5 mM, bovine serum albumin (BSA) 0.1%, and 3-isobutyl-1-methylxanthine (IBMX, Sigma) 1 mM, was used. The cells were washed once with cAMP assay buffer. Bile acids (50 μM) diluted with cAMP assay buffer or the compounds of the present invention (10 μM) were added thereto and the cells were incubated for 2 hrs. The culture supernatant was discarded, and the cAMP production amount was measured by cAMP Screen System (ABI). In the Table, Base means non-addition of a test compound.

`O=S(=O)(c1cc(C(F)(F)F)cc(C(F)(F)F)c1)N1CCCOc2nccc(-c3ccccc3)c2C1` [Example 23C, 5-{[3,5-bis(trifluoromethyl)phenyl]sulfonyl}-7-phenyl-3,4,5,6-tetrahydro-2H-pyrido[2,3-b][1,5]oxazocine]: the “cAMP producing activity (control %)” value with guinea pig TGR5 worked out at 119 control %. Also, at rat TGR5, the activation at 2 µM was found to be 148%. Also, the “GLP-1 (% relative to non-addition)” value in experiment [1] was 133 % relative to non-addition.

For the molecule `CC(=O)NCc1cccc(C2OC(CC(=O)NCc3ccccc3F)C(=O)N(CC(C)(C)C)c3ccc(Cl)cc32)c1` (single isomer, unassigned; (+)) [Reference Example 33, (+)-2-[3,5-trans-5-[3-(acetylaminomethyl)phenyl]-7-chloro-1-neopentyl-2-oxo-1,2,3,5-tetrahydro-4,1-benzoxazepin-3-yl]-N-(2-fluorobenzyl)acetamide], the activation at 2 µM on rat TGR5 is 92%. Moreover, in experiment [1], the “GLP-1 (% relative to non-addition)” value is given as 201 % relative to non-addition. On human TGR5 [2], the EC50 is under 100 nM.

For the molecule `FC(F)(F)c1cc(CN2CCOc3nccc(-c4ccccc4)c3C2)cc(C(F)(F)F)c1` [Example 9C, 4-[3,5-bis(trifluoromethyl)benzyl]-6-phenyl-2,3,4,5-tetrahydropyrido[3,2-f][1,4]oxazepine], the entries for the “cAMP production increasing activity (control %)” value on human TGR5 [3] and at rabbit TGR5 were 96 control % and 99 control %, respectively. In addition, the “cAMP production increasing activity” value in experiment [4] is on record as 0.2 pmol. Besides, the “cAMP production increasing activity (%)” value in the experiment with NCI-H716 cells was 109%. For the same molecule, the activation at 2 µM at rat TGR5 was determined as 112%.

Consider `CC(c1cc(C(F)(F)F)cc(C(F)(F)F)c1)N1CCOc2nccc(-c3ccccc3)c2C1.Cl` (stereo not drawn) [Example 33C, 4-{1-[3,5-bis(trifluoromethyl)phenyl]ethyl}-6-phenyl-2,3,4,5-tetrahydropyrido[3,2-f][1,4]oxazepine hydrochloride], for which the “cAMP producing activity (control %)” value with guinea pig TGR5 stood at 111 control %. For the same molecule, the activation at 2 µM on rat TGR5 turned out to be 149%. The “GLP-1 (% relative to non-addition)” value in experiment [1] is recorded as 214 % relative to non-addition. The EC50 at human TGR5 [2] was under 100 nM.

Source of the values: US7625887B2, “Receptor agonists” (Takeda Pharmaceutical Company Limited, priority 2003, dated 2009).
